{
  "source": "patent US8653049B2",
  "about": "“Normuramyl glycopeptide compounds” (priority 2008, dated 2014)",
  "key": {"[1]": {"test_system": "C. albicans strain 2091", "test": "Stimulation of innate immunity to Candida albicans infection, survival", "details": "s.c. 24 h after i.v. infection, vs PBS control, FIG. 20"}, "[2]": {"test_system": "S. typhimurium", "test": "Stimulation of innate immunity against Salmonella Typhimurium", "assay_type": "in vivo, BALB/c mice", "details": "liposomal preparations", "excerpt": "Test compounds at doses of 5, 10, 25, 50, 100 and 200 nmol per mouse were applied in., s.c., i.v., or p.o. 3 and 1 days before experimental infection (10 animals per group). Various organs (intestines, liver, spleen, lungs) were examined for the presence of salmonellae on day 30 post infection. Results were expressed as numbers of colony forming units (CFU) of S. typhimurium per 1 gram of tissue. Statistically significant differences in numbers of CFU between the individual experimental groups were calculated by one-way analysis of variance."}, "[3]": {"details": "rabbits, liposomal preparations s.c. 100 nmol/kg, 3 rabbits per group; passes if below 1.1° C.", "procedure,_shortened": "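Pyrogenicity was tested in New Zealand albino rabbits (3 per group) given liposomal preparations at 100 nmol/kg s.c., with temperature taken at 1, 2, 3, 4, 6 and 24 h. Controls were empty liposomes, liposomal and free MDP (50.7 nmol/kg) and B30-norAbu-MDP. A pass required summed ΔTmax below 1.1 °C.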"}, "[4]": {"test_system": "Salmonella enteritidis", "test": "Stimulation of innate immunity against Salmonella Enteritidis"}, "[5]": {"test_system": "Trichophyton mentagrophytes TM 179", "test": "Adjuvant activity for hsp60 DNA vaccine against ringworm", "assay_type": "in vivo, guinea pigs", "design": "key: semi-quantitative 0 to +++ method (where U=ulceration) for evaluation of dermal reactions, i.e. pathological lesions; semi-quantitative 0 to +++ method (where U=ulceration) for evaluation of dermal reactions, i.e. pathological lesions; semi-quantitative 0 to +++ method (where U=ulceration) for evaluation of dermal reactions, i.e. pathological lesions; semi-quantitative 0 to +++ method (where U=ulceration) for evaluation of dermal reactions, i.e. pathological lesions; U=ulceration", "details": "per animal"}, "[6]": {"details": "liposomal, 20 nmol per dose p.o. 72 and 24 h before infection (LD50), 5 mice"}, "[7]": {"details": "group 1: 200 μg adjuvant at −48 h + 20 μg DNA"}, "[8]": {"details": "group 2: 200 μg adjuvant at −24 h + 20 μg DNA"}, "[9]": {"details": "group 3: 200 μg adjuvant at 0 h + 20 μg DNA"}, "[10]": {"details": "group 4: 200 μg adjuvant at +24 h + 20 μg DNA"}},
  "note": "“And” between values parts separate entries of the source, which are not always exact repeats. Equal values may be shown once.",
  "data": [
    {"smiles": "CCCCCCCCCCCCCCC(CCCCCCCCCCCCCC)C(=O)OC[C@H]1OC(O)[C@H](NC(C)=O)[C@@H](OCC(=O)N[C@@H](CC)C(=O)N[C@H](CCC(=O)O)C(N)=O)[C@@H]1O", "note": "(stereo partly shown) [B30-norAbu-MDP]", "values": [
      {"measurement": "survival time and survival rate in C. albicans infection", "setting": "[1]; listed as free (non-liposomal) B30-norAbuMDP", "result": "lesser effect"},
      {"measurement": "survival time and survival rate in C. albicans infection", "setting": "[1]; listed as free B30-Nor-abuMDP", "result": "No effect"},
      {"measurement": "induction of immune responses in intestines", "setting": "[2]", "result": "able to induce immune responses in intestines"},
      {"measurement": "+ΔTmax (Sum of ΔTmax)", "setting": "[3]", "result": 0.5, "unit": "°C"},
      {"measurement": "protective effect / survival rate in S. Enteritidis infection", "setting": "[4]; 0 or 1 case of death by day 12", "result": "good protective effects"},
      {"measurement": "Day 6 Intest.: clear/infected/dead", "setting": "[4]; [6]", "result": "5/0/0"},
      {"measurement": "Day 6 Liver: clear/infected/dead", "setting": "[4]; [6]", "result": "4/1/0"},
      {"measurement": "Day 6 Lungs: clear/infected/dead", "setting": "[4]; [6]", "result": "5/0/0"},
      {"measurement": "Day 6 Spleen: clear/infected/dead", "setting": "[4]; [6]", "result": "4/1/0"},
      {"measurement": "Day 12 Intest.: clear/infected/dead", "setting": "[4]; [6]", "result": "4/0/1"},
      {"measurement": "Day 12 Liver: clear/infected/dead", "setting": "[4]; [6]", "result": "4/0/1"},
      {"measurement": "Day 12 Lungs: clear/infected/dead", "setting": "[4]; [6]", "result": "4/0/1"},
      {"measurement": "Day 12 Spleen: clear/infected/dead", "setting": "[4]; [6]", "result": "4/0/1"},
      {"measurement": "Skin reaction Day 12", "setting": "[5]; group 1: 200 μg adjuvant at −48 h + 20 μg DNA electroporation prime and boost", "result": "+ and ++"},
      {"measurement": "Skin reaction Day 21", "setting": "[5]; [7]", "result": "+++ (2×) and ++ (2×)"},
      {"measurement": "Skin reaction Day 28", "setting": "[5]; [7]", "result": "+"},
      {"measurement": "Skin reaction Day 12", "setting": "[5]; group 2: 200 μg adjuvant at −24 h + 20 μg DNA electroporation prime and boost", "result": "+++ (2×) and ++"},
      {"measurement": "Skin reaction Day 21", "setting": "[5]; [8]", "result": "++ (2×) and + (2×)"},
      {"measurement": "Skin reaction Day 28", "setting": "[5]; [8]", "result": "+ (2×) and 0"},
      {"measurement": "Skin reaction Day 12", "setting": "[5]; group 3: 200 μg adjuvant at 0 h + 20 μg DNA electroporation prime and boost", "result": "+++ and + (2×)"},
      {"measurement": "Skin reaction Day 21", "setting": "[5]; [9]", "result": "+"},
      {"measurement": "Skin reaction Day 28", "setting": "[5]; [9]", "result": 0},
      {"measurement": "Skin reaction Day 12", "setting": "[5]; group 4: 200 μg adjuvant at +24 h + 20 μg DNA electroporation prime and boost", "result": "+++ and + (2×)"},
      {"measurement": "Skin reaction Day 21", "setting": "[5]; [10]", "result": "++"},
      {"measurement": "Skin reaction Day 28", "setting": "[5]; [10]", "result": "+ (2×) and 0 (2×)"}
    ]}
  ]
}
